According to PubChem BioAssay (NCI):
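Results reflect a 48-hour exposure of cells in 96-well plates to compound at five concentrations. GI50 marks 50% less growth. The concentration for full growth arrest is given as TGI.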

Key:
Experiment in all cases: inhibition of tumour cell growth, NCI panel, 48 h
OVCAR-5 ovarian = tested on: OVCAR-5 ovarian
SF-295 CNS = tested on: SF-295 CNS
HL-60(TB) leukemia = tested on: HL-60(TB) leukemia
786-0 renal = tested on: 786-0 renal
M14 melanoma = tested on: M14 melanoma
SNB-75 CNS = tested on: SNB-75 CNS
KM12 colon = tested on: KM12 colon
HCC-2998 colon = tested on: HCC-2998 colon

Row | Structure (SMILES) | TGI (OVCAR-5 ovarian) [µM] | TGI (SF-295 CNS) [µM] | TGI (HL-60(TB) leukemia) [µM] | TGI (786-0 renal) [µM] | TGI (M14 melanoma) [µM] | TGI (SNB-75 CNS) [µM] | TGI (KM12 colon) [µM] | TGI (HCC-2998 colon) [µM] | GI50 (OVCAR-5 ovarian) [µM] | GI50 (SF-295 CNS) [nM] | GI50 (HL-60(TB) leukemia) [µM] | GI50 (786-0 renal) [nM] | GI50 (SNB-75 CNS) [µM] | GI50 (KM12 colon) [nM] | GI50 (M14 melanoma) [nM] | GI50 (HCC-2998 colon) [nM]
1 | O=C(CCl)N1CCN(c2ccccn2)CC1 | 35.1 | > 10 | 49.6 | 35.1 | 35.5 | > 10 | 94 | 35.8 | – | – | – | – | – | – | – | –
2 | CCCCCCCCCCCCCCCC(=O)OCC1OC(OCCCC)[C@H](O[C@@H]2OC(C)C(OC(=O)CCC)C(O)C2O)C(O)C1O (stereo partly specified) | 27.6 | 28.2 | 32 | 30.8 | – | 28.7 | 31.9 | – | 14.2 | 13800 | 14.5 | 16700 | 14.4 | 17100 | – | –
3 | CN1CCN(CCCCCOc2cc(O)c3c(=O)cc(-c4ccccc4)oc3c2)CC1 | 22.2 | 4.16 | 8.63 | 26.6 | 3.09 | 54.9 | 9.66 | 4.9 | 4 | 2050 | 3.04 | 12400 | 30.5 | 2840 | 1710 | 239
4 | COc1cccc(N2C(=N)/C(=C3\Nc4ccccc4S3)CC2=O)c1 | > 100 | 8.1 | > 100 | > 100 | > 100 | 57.3 | > 100 | – | > 100 | 1640 | 4.85 | 4910 | 10.3 | 7480 | > 100000 | –
5 | C/C=C(/C)C(=O)OC1C=C(CO)C(=O)C(OC(=O)C2(C)OC2C)C1C(C)C (stereo unspecified) | 3.74 | 8.16 | 6.45 | 3.24 | 3.49 | – | 3.67 | 3.22 | 1.93 | 2620 | 1.16 | 1790 | – | 1830 | 1580 | 1740
6 | COc1cc(C2C=C(C)N=C3SC=C(C)N32)cc(OC)c1OC (stereo unspecified) | 3.83 | 6.19 | 7.09 | 2.67 | 2.89 | 20.1 | 4.55 | 3.54 | 1.55 | 2070 | 0.76 | 827 | 4.3 | 1330 | 1130 | 1940
7 | CN1CCC(=C(c2ccc(Cl)cc2)c2ccccn2)CC1 | > 100 | > 100 | > 100 | > 100 | 38.7 | > 100 | > 100 | > 100 | > 100 | 37600 | 58.9 | > 100000 | 31 | > 100000 | 19200 | > 100000
8 | N#Cc1c(-c2ccccc2)nc(SCC(O)CN2CCOCC2)nc1N1CCOCC1 (stereo unspecified) | > 100 | > 100 | 15.3 | > 100 | > 100 | 11.1 | > 100 | > 100 | 19 | 5490 | 4.05 | 14800 | 1.36 | 30200 | 50000 | 47000
9 | CN(C)C/C=C/C(=O)Nc1ccc(C(=O)Nc2cccc(Nc3ncc(Cl)c(-c4c[nH]c5ccccc45)n3)c2)cc1 | – | 0.475 | – | – | 0.173 | 0.101 | 0.232 | 0.203 | 0.0531 | 155 | – | 44.1 | 0.0316 | 74.7 | 34.6 | 15.4
10 | Cc1cc2c3c(nc4ccccc42)C(=O)c2cccnc2-c3n1 | 2.33 | 1.91 | 1.36 | 0.823 | – | 3.09 | 0.529 | 1.26 | 1.09 | 541 | 0.135 | 148 | 0.833 | 142 | 479 | 311
11 | N#C/C(=C\c1ccc(O)c(O)c1)C(=O)NCc1cccc(C(F)(F)F)c1 | 55 | 15.7 | 92.3 | 45.5 | – | 59.2 | 19.6 | 22.2 | 19.6 | 1970 | 4.73 | 19000 | 13.6 | 4040 | – | 10300
12 | Oc1ccc(/C=N/NC(=S)Nc2ccccc2)nc1 | > 100 | – | 6.77 | 12.4 | – | – | > 100 | > 100 | 7.09 | – | 1.55 | 1840 | – | 1910 | – | 4090
13 | COc1ccc(/C=C/C(=O)C(=O)/C=C/c2ccc(OC)c(OC)c2)cc1OC | 8.08 | 31.2 | 16.9 | 7.88 | 4.4 | 33.9 | 3.67 | 3.21 | 2.5 | 3050 | 2.36 | 2280 | 2.49 | 1600 | 1690 | 1720
14 | CCN1C[C@@H](C)n2c(c(O)c3c(=O)n(Cc4ccc(F)c(Cl)c4)nc(C(=O)NC)c32)C1=O | > 100 | > 100 | – | 8.4 | 39.5 | 7.12 | 7.71 | 6.08 | 3.86 | 2880 | – | 2910 | 2.28 | 2730 | 3640 | 2540
15 | CC(=O)[CH-]C(=O)c1ccccc1.CC(=O)[CH-]C(=O)c1ccccc1.CC(=O)[CH-]C(=O)c1ccccc1.[Cl-].[Hf+4] | 71.8 | > 100 | > 100 | > 100 | 60.8 | 70.4 | > 100 | – | 22.8 | 19800 | 25.8 | 25700 | 22.2 | 36100 | 18600 | –
16 | CCCCNC(=O)CC1=C(C)/C(=C/c2[nH]c(-c3ccc[nH]3)cc2OC)N=C1C | 34.1 | 3.48 | 6.87 | 4.64 | 3.91 | 7.36 | 10.6 | – | 3.19 | 1600 | 2.84 | 2040 | 1.85 | 1800 | 1830 | –
